Data on four compounds can be found in paper PMC9080233, “Synthesis and biological evaluation of novel quinolone derivatives dual targeting histone deacetylase and tubulin polymerization as antiproliferative agents” (RSC Advances, 2018).

As usually defined, the IC50 is the concentration needed to halve the response being measured. One may read the melting point as the temperature of the solid-liquid transition.

In data set [1] the target is T1, human recombinant HDAC1 (Homo sapiens, UniProt Q13547).
T1 construct: purchased BPS Bioscience, CA
The experiment in a line: HDAC activity assay (fluorogenic HDAC assay kit), HDAC1. The format is biochemical. The conditions noted are these: human recombinant HDAC1, 37 °C, 30 min.
Method: (§1) HDAC activity was measured using fluorogenic HDACs assay kit (BPS Bioscience, CA) according to the manufacturer's protocol. […] Fluorescence values were measured at an excitation of 350 nm and an emission of 440 nm using SpectraMax M2 microplate reader. IC50 values were calculated using Origin software. IC50 values were determined using nonlinear regression analysis.

Data set [2] deals with T2, human recombinant HDAC2 (Homo sapiens, UniProt Q92769).
T2 construct: purchased BPS Bioscience, CA
The experiment in a line: HDAC activity assay (fluorogenic HDAC assay kit), HDAC2. The format is biochemical. The conditions noted are these: human recombinant HDAC2, 37 °C, 30 min.
Method: as §1

For data set [3], the target named is T3, human recombinant HDAC6 (Homo sapiens, UniProt Q9UBN7).
T3 construct: purchased BPS Bioscience, CA
T3 sequence (Q9UBN7 1-1215): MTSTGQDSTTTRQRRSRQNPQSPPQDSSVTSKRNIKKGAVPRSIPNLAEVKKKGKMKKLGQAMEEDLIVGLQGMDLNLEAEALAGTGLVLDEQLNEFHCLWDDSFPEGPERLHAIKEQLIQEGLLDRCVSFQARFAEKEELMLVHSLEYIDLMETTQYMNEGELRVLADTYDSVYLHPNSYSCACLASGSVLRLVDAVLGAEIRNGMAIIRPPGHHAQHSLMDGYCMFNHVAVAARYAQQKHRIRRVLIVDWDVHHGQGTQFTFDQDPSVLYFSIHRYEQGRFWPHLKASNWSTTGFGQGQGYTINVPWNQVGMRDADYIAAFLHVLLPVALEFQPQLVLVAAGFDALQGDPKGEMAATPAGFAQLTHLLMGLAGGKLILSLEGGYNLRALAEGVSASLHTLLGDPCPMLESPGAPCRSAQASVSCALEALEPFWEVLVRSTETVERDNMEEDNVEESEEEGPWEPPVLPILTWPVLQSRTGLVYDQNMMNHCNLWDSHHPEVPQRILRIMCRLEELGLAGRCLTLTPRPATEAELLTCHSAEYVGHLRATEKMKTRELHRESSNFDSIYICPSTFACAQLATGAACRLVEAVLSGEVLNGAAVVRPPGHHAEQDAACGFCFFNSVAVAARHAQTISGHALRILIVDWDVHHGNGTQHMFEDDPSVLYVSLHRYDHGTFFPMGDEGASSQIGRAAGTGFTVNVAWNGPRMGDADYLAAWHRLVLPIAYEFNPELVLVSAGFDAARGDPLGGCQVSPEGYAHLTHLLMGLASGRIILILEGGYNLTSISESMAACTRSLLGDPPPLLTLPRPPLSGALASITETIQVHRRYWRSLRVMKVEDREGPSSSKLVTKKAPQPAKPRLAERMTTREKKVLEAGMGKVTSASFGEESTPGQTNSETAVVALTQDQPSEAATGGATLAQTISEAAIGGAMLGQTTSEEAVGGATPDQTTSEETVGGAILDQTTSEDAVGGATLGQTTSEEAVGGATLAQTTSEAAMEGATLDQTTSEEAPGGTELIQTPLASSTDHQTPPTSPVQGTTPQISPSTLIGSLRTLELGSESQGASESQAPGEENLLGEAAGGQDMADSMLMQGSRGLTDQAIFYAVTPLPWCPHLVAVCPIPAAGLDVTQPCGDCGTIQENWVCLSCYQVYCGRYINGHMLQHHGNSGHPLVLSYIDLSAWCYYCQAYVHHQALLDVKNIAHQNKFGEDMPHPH
Briefly: HDAC activity assay (fluorogenic HDAC assay kit), HDAC6.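 On all read-outs here: underlying HDAC activity read as fluorescence, excitation 350 nm and emission 440 nm.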 The class given is biochemical. The conditions noted are these: for IC50: human recombinant HDAC6, 37 °C, 30 min; for Selectivity index HDAC6/1: ratio of IC50 HDAC1 to IC50 HDAC6; for Selectivity index HDAC6/2: ratio of IC50 HDAC2 to IC50 HDAC6.
Method: as §1

The test system of data set [4] is tubulin. Briefly: Tubulin polymerization assay. The format is biochemical. The conditions noted are these: in words.
Method: Tubulin polymerization assay was performed using a fluorescence-based tubulin polymerization assay Kit (BK011, Cytoskeleton, Inc.) according to the manufacturer's protocol. […] After addition of polymerization buffer and 0.4 mM GTP, the reaction mixtures were transferred to 0 °C cuvettes in a recording spectrophotometer. […] Data from each well was normalized relative to initial readings,[43] and plots of ΔODmax (final−initial values) against compound concentration, expressed relative to vehicle control (DMSO only), were used to calculate IC50 values.[44] IC50 values were determined using nonlinear regression analysis.
For data set [5], the system named is human lung adenocarcinoma cells A549. Briefly: Antiproliferative activity, CCK-8 assay, A549. The format is cell-based. The conditions noted are these: CCK-8, 72 hours, mean ± SD. Background: Formazan colour is commonly taken as a measure of viable cells.
Method: (§2) Antitumor activities in vitro of synthetic compounds were measured using CCK-8 Assay Kit (BPS Bioscience, CA) according to the manufacturer's protocol. […] Control cells were treated with serum free medium. Then CCK-8 solution was added to each well to determine cell viability. The IC50 values were calculated according to the dose-dependent curves (Origin software). IC50 values were determined using nonlinear regression analysis.
Data set [6] has as its system liver cancer cells HepG2. The experiment in a line: Antiproliferative activity, CCK-8 assay, HepG2. The class given is cell-based. The conditions noted are these: Homo sapiens, CCK-8, 72 hours, mean ± SD.
Method: as §2
Data set [7] deals with breast cancer cells MCF-7. Briefly: Antiproliferative activity, CCK-8 assay, MCF-7. The format is cell-based. The conditions noted are these: Homo sapiens, MCF7; CCK-8, 72 hours; mean ± SD.
Method: as §2
Data set [8] concerns prostate cancer cells PC-3. Briefly: Antiproliferative activity, CCK-8 assay, PC-3. The class given is cell-based. The conditions noted are these: Homo sapiens; CCK-8, 72 hours; mean ± SD.
Method: as §2
Data set [9] concerns human cervical carcinoma cells HeLa. Briefly: Antiproliferative activity, CCK-8 assay, HeLa. The format is cell-based. The conditions noted are these: CCK-8, 72 hours, mean ± SD, read-out: IC50 HeLa. As to the method: Antitumor activities in vitro of synthetic compounds were measured using CCK-8 Assay Kit (BPS Bioscience, CA) according to the manufacturer's protocol. Cells were plated into 96-well plates with appropriate test compounds for 72 hours. Control cells were treated with serum free medium. Then CCK-8 solution was added to each well to determine cell viability. The IC50 values were calculated according to the dose-dependent curves (Origin software). IC50 values were determined using nonlinear regression analysis.

In data set [10] the test system is healthy MCF-10A cells. Briefly: Toxicity to healthy cells, CCK-8 assay, MCF-10A. The format is cell-based. The conditions noted are these: Homo sapiens, MCF-10A; healthy cells, CCK-8, 72 hours; >100 = not determinable up to highest concentrations tested.
Method: as §2

T1 sequence (Q13547 whole entry): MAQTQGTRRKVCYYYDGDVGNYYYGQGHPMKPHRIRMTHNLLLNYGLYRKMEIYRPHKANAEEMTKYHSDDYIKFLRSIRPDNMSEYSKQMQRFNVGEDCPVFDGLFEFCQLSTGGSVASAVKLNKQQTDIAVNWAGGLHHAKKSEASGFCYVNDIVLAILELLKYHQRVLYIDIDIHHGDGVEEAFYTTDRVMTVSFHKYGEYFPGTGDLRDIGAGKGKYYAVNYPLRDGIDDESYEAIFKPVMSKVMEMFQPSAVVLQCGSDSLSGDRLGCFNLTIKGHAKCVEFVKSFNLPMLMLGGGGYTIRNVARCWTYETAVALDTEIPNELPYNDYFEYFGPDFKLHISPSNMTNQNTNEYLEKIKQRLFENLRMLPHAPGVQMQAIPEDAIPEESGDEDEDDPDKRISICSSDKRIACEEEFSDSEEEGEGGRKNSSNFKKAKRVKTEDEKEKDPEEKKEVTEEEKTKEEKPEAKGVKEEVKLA
Sequence of tubulin (P02550 whole entry): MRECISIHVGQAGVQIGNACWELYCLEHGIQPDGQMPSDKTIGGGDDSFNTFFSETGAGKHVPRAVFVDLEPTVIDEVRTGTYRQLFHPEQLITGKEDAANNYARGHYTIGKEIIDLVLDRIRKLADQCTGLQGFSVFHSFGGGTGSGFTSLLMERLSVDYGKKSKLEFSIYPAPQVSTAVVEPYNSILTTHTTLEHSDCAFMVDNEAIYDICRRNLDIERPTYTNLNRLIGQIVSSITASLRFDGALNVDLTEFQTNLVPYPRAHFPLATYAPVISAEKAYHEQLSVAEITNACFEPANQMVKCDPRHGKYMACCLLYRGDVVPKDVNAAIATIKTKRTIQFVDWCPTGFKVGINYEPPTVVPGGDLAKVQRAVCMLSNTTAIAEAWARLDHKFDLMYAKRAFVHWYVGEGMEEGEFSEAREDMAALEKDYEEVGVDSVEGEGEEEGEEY
Sequence of tubulin (P02554 whole entry, further chain): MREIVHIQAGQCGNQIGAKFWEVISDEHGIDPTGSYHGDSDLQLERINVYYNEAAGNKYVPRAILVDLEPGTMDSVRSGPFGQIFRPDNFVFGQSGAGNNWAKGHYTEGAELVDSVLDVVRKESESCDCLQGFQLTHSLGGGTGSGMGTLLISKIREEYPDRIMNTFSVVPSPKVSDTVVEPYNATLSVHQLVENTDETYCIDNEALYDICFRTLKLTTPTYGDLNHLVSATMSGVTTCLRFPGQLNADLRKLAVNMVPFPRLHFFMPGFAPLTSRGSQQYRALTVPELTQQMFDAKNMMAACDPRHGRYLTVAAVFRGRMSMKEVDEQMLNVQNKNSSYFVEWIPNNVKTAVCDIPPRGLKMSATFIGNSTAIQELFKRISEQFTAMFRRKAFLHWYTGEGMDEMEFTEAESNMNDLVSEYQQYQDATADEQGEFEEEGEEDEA
T2 sequence (Q92769 whole entry): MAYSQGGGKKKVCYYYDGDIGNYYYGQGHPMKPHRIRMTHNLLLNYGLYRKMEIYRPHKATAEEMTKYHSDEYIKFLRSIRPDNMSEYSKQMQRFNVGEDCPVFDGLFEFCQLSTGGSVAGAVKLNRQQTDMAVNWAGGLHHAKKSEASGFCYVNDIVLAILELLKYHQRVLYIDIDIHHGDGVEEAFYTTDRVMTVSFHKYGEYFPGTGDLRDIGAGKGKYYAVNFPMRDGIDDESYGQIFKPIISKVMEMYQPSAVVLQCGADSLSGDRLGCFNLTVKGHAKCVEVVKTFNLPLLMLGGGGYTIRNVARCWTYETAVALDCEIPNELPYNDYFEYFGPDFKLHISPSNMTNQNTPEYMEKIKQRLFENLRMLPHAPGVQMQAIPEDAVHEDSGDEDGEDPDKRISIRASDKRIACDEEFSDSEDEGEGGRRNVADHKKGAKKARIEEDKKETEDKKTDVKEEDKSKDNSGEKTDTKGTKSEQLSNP

For the compound `C[C@H]1COc2c(N3CCN(C)CC3)c(F)cc3c(=O)c(C(=O)NCc4cn(CCCCCCC(=O)O)nn4)cn1c23` [Compound 7b, (S)-7-(4-((9-fluoro-3-methyl-10-(4-methylpiperazin-1-yl)-7-oxo-3,7-dihydro-2H-[1,4]oxazino[2,3,4-ij]quinoline-6-carboxamido)methyl)-1H-1,2,3-triazol-1-yl)heptanoic acid], the melting point fell in the range of 187 to 190 °C. Besides, in data set [1], the IC50 was determined as 2.1 ± 0.37 µM. In data set [2], the IC50 was 4.6 ± 0.62 µM. For the same compound, in data set [3], the IC50 was found to be 1.1 ± 0.28 µM, the “Selectivity index HDAC6/1” value was determined as 1.9 and the “Selectivity index HDAC6/2” value is reported as 4.2. The “tubulin polymerization inhibition compared with reference compound” value in data set [4] is reported as “equipotent to reference compound CA-4”. The same compound returned an IC50 in [5] of 9.3 ± 0.82 µM. Also, the half-inhibitory concentration (IC50) in data set [6] is 9.9 ± 0.62 µM. The compound further returned an IC50 in [7] of 7.8 ± 0.71 µM. This compound also gave an IC50 in [8] of 11.1 ± 1.16 µM. In data set [9], the IC50 was 8.4 ± 0.62 µM. In addition, the IC50 in data set [10] was more than 100 µM.

On to `C[C@H]1COc2c(N3CCN(C)CC3)c(F)cc3c(=O)c(C(=O)NCc4cn(CCCCCC(=O)NO)nn4)cn1c23` [Compound 9a, (S)-9-Fluoro-N-((1-(6-(hydroxyamino)-6-oxohexyl)-1H-1,2,3-triazol-4-yl)methyl)-3-methyl-10-(4-methylpiperazin-1-yl)-7-oxo-3,7-dihydro-2H-[1,4]oxazino[2,3,4-ij]quinoline-6-carboxamide], for which the IC50 was determined as 0.073 ± 0.045 µM in [1]; 0.049 ± 0.023 µM in [3]; 5.6 ± 0.59 µM in data set [5]; 6.6 ± 0.78 µM in [6]; 1.1 ± 0.26 µM in data set [7]; 9.6 ± 1.05 µM in data set [8]. Further, the IC50 in data set [9] is 5.2 ± 0.82 µM; in [10] it was more than 100 µM. Further, the “Selectivity index HDAC6/1” value in [3] is recorded as 1.5. The “Selectivity index HDAC6/2” value in [3] is 1.7. Moreover, the “tubulin polymerization inhibition compared with reference compound” value in data set [4] is listed as “equipotent to reference compound CA-4”.

In the case of `C[C@H]1COc2c(N3CCN(C)CC3)c(F)cc3c(=O)c(C(=O)OCc4cn(CCCCCCC(=O)NO)nn4)cn1c23` [Compound 8b, (S)-(1-(7-(hydroxyamino)-7-oxoheptyl)-1H-1,2,3-triazol-4-yl)methyl-9-fluoro-3-methyl-10-(4-methylpiperazin-1-yl)-7-oxo-3,7-dihydro-2H-[1,4]oxazino[2,3,4-ij]quinoline-6-carboxylate], the IC50 in [1] was 0.067 ± 0.019 µM; in [2] it was 0.082 ± 0.015 µM; in data set [3], 0.03 ± 0.019 µM; in data set [5] it was 3.5 ± 0.17 µM; in data set [6], 5.2 ± 0.56 µM; in data set [7], 0.8 ± 0.15 µM. Also, the results for the half-maximal inhibitory concentration (IC50) in data set [8], in [9] and in [10] were 8.5 ± 0.79 µM, 2.7 ± 0.17 µM and more than 100 µM, respectively. Further, in data set [3], the “Selectivity index HDAC6/1” value is 2.2. For the same compound, the “Selectivity index HDAC6/2” value in data set [3] came out at 2.7. Moreover, the “tubulin polymerization inhibition compared with reference compound” value in data set [4] is listed as “equipotent to reference compound CA-4”.

The compound `C[C@H]1COc2c(N3CCN(C)CC3)c(F)cc3c(=O)c(C(=O)OCc4cn(CCCCCCC(=O)O)nn4)cn1c23` [Compound 6b, (S)-7-(4-(((9-fluoro-3-methyl-10-(4-methylpiperazin-1-yl)-7-oxo-3,7-dihydro-2H-[1,4]oxazino[2,3,4-ij]quinoline-6-carbonyl)oxy)methyl)-1H-1,2,3-triazol-1-yl)heptanoic acid] returned a melting point of 183 to 185 °C. Besides, in [1], the IC50 was 5.7 ± 0.71 µM. In addition, in data set [2], the IC50 turned out to be 6.2 ± 0.92 µM. For the same compound, in [3], the IC50 was determined as 1.4 ± 0.35 µM, the “Selectivity index HDAC6/1” value was found to be 4.1 and the “Selectivity index HDAC6/2” value is reported as 4.4. Besides, half-maximal inhibition in data set [5] (IC50) required 10.7 ± 1.08 µM. Also, half-maximal inhibition in data set [6] (IC50) was put at 10.5 ± 1.17 µM. Also, the IC50 in data set [7] was found to be 8.9 ± 0.54 µM. This compound also gave an IC50 in data set [8] of 12.9 ± 1.25 µM. Further, in [9], the IC50 stood at 9.7 ± 0.83 µM. This compound also showed an IC50 in data set [10] of more than 100 µM.
